Where two headings read alike, the source gives them in different places.
Columns and labels:
Type in all cases: cell-based
Rhizoctonia solani = Rhizoctonia solani microtest in liquid medium (PDB), microtitre plates, optical density; conditions: 5 days incubation, 100% = no fungal growth
Pyricularia oryzae = conditions: 3 days incubation, 100% = no fungal growth
Gibberella zeae = conditions: 3 days incubation, 100% = no fungal growth
Botrytis cinerea = Botrytis cinerea microtest in liquid medium (PDB), microtitre plates, optical density; conditions: 5 days incubation, 100% = no fungal growth

**Q.** For `CC1=CC(O/C=C2/C(=O)OC3c4ccccc4CC23)OC1=O` (stereo not shown) [Compound A], which Efficacy in % (Rhizoctonia solani; 0.0000001 ppm) is on record?
**A.** The Efficacy in % was 26%.

**Q.** What about the Efficacy in % (Pyricularia oryzae; 0.00003 ppm) of the same molecule?
**A.** Its Efficacy in % is 4%.

**Q.** What about the Efficacy in % (Gibberella zeae; 0.0000001 ppm) of the same molecule?
**A.** The Efficacy in % was 35%.

**Q.** And the Efficacy in % (Botrytis cinerea; 0.0000001 ppm)?
**A.** Its Efficacy in % is 8%.

**Q.** And the Efficacy in % (Botrytis cinerea; 0.00003 ppm)?
**A.** Its Efficacy in % is 1%.

**Q.** `COCC(=O)N(c1c(C)cccc1C)C(C)C(=O)OC` (stereo not shown) [Metalaxyl] was tested. Which Efficacy in % (Rhizoctonia solani; 0.001 ppm) did it give?
**A.** Its Efficacy in % is 27%.

**Q.** Which Efficacy in % (Botrytis cinerea; 0.001 ppm) does the source give for `Cc1nn(C)c(F)c1C(=O)Nc1ccccc1C(C)CC(C)C` (stereo not shown) [N-[2-(1,3-Dimethylbutyl)phenyl]-5-fluor-1,3-dimethyl-1H-pyrazol-4-carboxamid] here?
**A.** Its Efficacy in % is 17%.

**Q.** For `OC(Cc1ccccc1Cl)(Cn1nc[nH]c1=S)C1(Cl)CC1` (stereo not shown) [Prothioconazole], which Efficacy in % (Botrytis cinerea; 0.3 ppm) is on record?
**A.** The Efficacy in % was 40%.

**Q.** With `CC(C)(C)C(O)(CCc1ccc(Cl)cc1)Cn1cncn1` (stereo not shown) [Tebuconazole] as the molecule, how does the Efficacy in % (Gibberella zeae; 0.001 ppm) read?
**A.** Its Efficacy in % is 23%.

**Q.** Which Efficacy in % (Pyricularia oryzae; 0.3 ppm) does the source give for `CON=C(C(=O)OC)c1ccccc1CON=C(C)c1cccc(C(F)(F)F)c1` [Trifloxystrobin] here?
**A.** The Efficacy in % was 58%.

Reference: patent publication US20100152270A1, “PESTICIDE COMPOSITION COMPRISING A STRIGOLACTONE DERIVATIVE AND A FUNGICIDE COMPOUND” (priority 2007, published 2010)
